Counter-ions that a name gives are not always drawn.
What was measured:
[1] = tested on: NCI-H292 lung cancer cells; assay: FDA drug screening, complete media vs cholesterol-free media without statin (TABLE 1); assay type: cell-based, human
[2] = tested on: NCI-H292 lung cancer cells; assay: FDA drug screening, complete media vs cholesterol-free media with simvastatin (TABLE 2); assay type: cell-based, human; settings: for Cholesterol-free media + simvastatin (0.04 μM) / Complete Media: NCI-H292 cells
[3] = Complete minus Cholesterol-free, […]
[4] = NCI-H292 cells, FDA drug library screen, cholesterol-free media without statin
[5] = NCI-H292 cells, FDA drug library screen, complete media
[6] = cholesterol-free media with simvastatin 0.04 μM, FDA drug library screen (TABLE 2)
[7] = complete media, FDA drug library screen (TABLE 2)
[8] = complete media minus cholesterol-free media + simvastatin (0.04 μM), […]
[9] = Complete minus Cholesterol-free, >0 enhanced anti-cancer activity, about 0 neutral, <0 antagonist
[10] = NCI-H292 cells, cholesterol-free media without statin, FDA drug library screen
[11] = NCI-H292 cells, complete media, FDA drug library screen
[12] = FDA drug library screen, cholesterol-free media with simvastatin 0.04 μM
[13] = FDA drug library screen, complete media
[14] = complete media vs cholesterol-free media + simvastatin (0.04 μM), >0 enhanced anti-cancer activity, about 0 neutral, <0 antagonist
[15] = NCI-H292 cells, cholesterol-free media without statin
[16] = complete media minus cholesterol-free media + simvastatin, […]
[17] = complete media minus cholesterol-free media + simvastatin (0.04 μM), >0 enhanced anti-cancer activity, about 0 neutral, <0 antagonist
[18] = Complete minus Cholesterol-free, greater than 0 enhanced anti-cancer activity, about 0 neutral, below 0 antagonist
[19] = complete media minus cholesterol-free media + simvastatin, >0 enhanced anti-cancer activity, about 0 neutral, <0 antagonist
[20] = complete vs cholesterol-free media, >0 enhanced anti-cancer activity, about 0 neutral, <0 antagonist
[21] = drug in cholesterol-free media with simvastatin 0.04 μM
[22] = FDA library drug in cholesterol-free media with simvastatin 0.04 μM
[23] = FDA library drug in complete media
[24] = NCI-H292 cells in cholesterol-free media without statin
[25] = NCI-H292 cells in complete media
[26] = Complete minus Cholesterol-free, greater than 0 enhanced anti-cancer activity, about 0 neutral, below 0 antagonists

COc1cc2c(cc1OC)-c1cc3ccc(OC)c(OC)c3c[n+]1CC2.[Cl-] [Palmatine (chloride)]
Difference [1, 3]: −0.14
Cholesterol-free [1, 4]: 0.7642
Complete [1, 5]: 0.6255
Cholesterol-free media + simvastatin (0.04 μM) [2, 6]: 0.706
Complete Media [2, 7]: 0.6459
Difference [2, 8]: −0.06

CC(O)(CS(=O)(=O)c1ccc(F)cc1)C(=O)Nc1ccc(C#N)c(C(F)(F)F)c1 (stereo not shown) [Bicalutamide]
Difference [1, 9]: 0.00
Cholesterol-free [1, 10]: 1.018
Complete [1, 11]: 1.016
Cholesterol-free media + simvastatin (0.04 μM) [2, 12]: 1.219
Complete Media [2, 13]: 1.09
Difference [2, 14]: −0.13

Fesoterodine (fumarate)
Difference [1, 3]: −0.24
Cholesterol-free [1, 15]: 1.247
Complete ([1]; NCI-H292 cells, complete media): 1.003
Cholesterol-free media + simvastatin (0.04 μM) [2, 12]: 0.9771
Complete Media [2, 13]: 1.278
Difference [2, 16]: 0.30

COS(=O)(=O)[O-].C[n+]1c2ccccc2nc2ccccc21 [Phenazine (methylsulfate)]
Difference [1, 9]: −0.01
Cholesterol-free [1, 10]: 0.03605
Complete [1, 11]: 0.02161
Cholesterol-free media + simvastatin (0.04 μM) [2, 6]: 0.07249
Complete Media [2, 7]: 0.06209
Difference [2, 17]: −0.01

C[C@]12CC[C@@H]3c4ccc(O)cc4CC[C@H]3[C@@H]1CC[C@H]2O [Alpha-Estradiol]
Difference [1, 18]: −0.14
Cholesterol-free [1, 4]: 0.998
Complete [1, 5]: 0.8561
Cholesterol-free media + simvastatin (0.04 μM) [2, 12]: 1.11
Complete Media [2, 13]: 1.408
Difference [2, 19]: 0.30

CC1=C(C(=O)O)N2C(=O)[C@@H](NC(=O)[C@H](N)c3ccc(O)cc3)[C@H]2SC1 [Cefadroxil]
Cholesterol-free [1, 10]: 1.424
Complete [1, 11]: 1.685
Difference [1, 20]: 0.26
Cholesterol-free media + simvastatin (0.04 μM) [2, 12]: 1.041
Complete Media [2, 13]: 1.588
Difference [2, 19]: 0.55

O=c1ccc2ccc(O)c(O)c2o1 [Daphnetin]
Difference [1, 9]: −0.27
Cholesterol-free [1, 15]: 1.207
Complete ([1]; NCI-H292 cells, complete media): 0.9359
Cholesterol-free media + simvastatin (0.04 μM) [2, 21]: 1.124
Complete Media ([2]; drug in complete media): 0.9139
Difference [2, 14]: −0.21

Cc1cnc(Nc2ccc(OCCN3CCCC3)cc2)nc1Nc1cccc(S(=O)(=O)NC(C)(C)C)c1 [Fedratinib]
Difference [1, 9]: −0.27
Cholesterol-free [1, 15]: 0.5626
Complete ([1]; NCI-H292 cells, complete media): 0.2926
Cholesterol-free media + simvastatin (0.04 μM) [2, 22]: 0.6759
Complete Media [2, 23]: 0.284
Difference [2, 14]: −0.39

CCN(C)C(=O)Oc1cccc([C@H](C)N(C)C)c1 [Rivastigmine]
Difference [1, 3]: −0.61
Cholesterol-free [1, 24]: 1.742
Complete [1, 25]: 1.133
Cholesterol-free media + simvastatin (0.04 μM) ([2]; cholesterol-free media with simvastatin 0.04 μM, […]): 1.229
Complete Media ([2]; complete media, […]): 1.345
Difference [2, 16]: 0.12

CC[C@H]1OC(=O)[C@H](C)[C@@H](O[C@H]2C[C@@](C)(OC)[C@@H](O)[C@H](C)O2)[C@H](C)[C@@H](O[C@@H]2O[C@H](C)C[C@H](N(C)C)[C@H]2O)[C@](C)(O)C[C@@H](C)/C(=N\OCOCCOC)[C@H](C)[C@@H](O)[C@]1(C)O [Roxithromycin]
Cholesterol-free [1, 10]: 0.9904
Complete [1, 11]: 1.336
Difference [1, 20]: 0.35
Cholesterol-free media + simvastatin (0.04 μM) [2, 12]: 0.9837
Complete Media [2, 13]: 0.8382
Difference [2, 14]: −0.15

O=C(O)Cc1ccccc1Nc1c(Cl)cccc1Cl [Diclofenac (potassium)]
Difference [1, 9]: −0.03
Cholesterol-free [1, 10]: 1.133
Complete [1, 11]: 1.107
Cholesterol-free media + simvastatin (0.04 μM) [2, 6]: 1.093
Complete Media [2, 7]: 1.041
Difference [2, 17]: −0.05

CC[C@@]1(O)C[C@H](O[C@H]2C[C@H](N(C)C)[C@H](O[C@H]3C[C@H](O)[C@H](O[C@H]4CCC(=O)[C@H](C)O4)[C@H](C)O3)[C@H](C)O2)c2c(cc3c(c2O)C(=O)c2c(O)cccc2C3=O)[C@H]1C(=O)OC.Cl [Aclacinomycin A hydrochloride]
Difference [1, 3]: −0.01
Cholesterol-free [1, 10]: 0.01335
Complete [1, 11]: 0.007534
Cholesterol-free media + simvastatin (0.04 μM) [2, 6]: 0.01688
Complete Media [2, 7]: 0.01023
Difference [2, 8]: −0.01

NC(=O)N[C@@H](CCC(=O)O)C(=O)O [Carglumic Acid]
Difference [1, 18]: −0.10
Cholesterol-free [1, 4]: 1.036
Complete [1, 5]: 0.9389
Cholesterol-free media + simvastatin (0.04 μM) [2, 12]: 0.9383
Complete Media [2, 13]: 1.207
Difference [2, 19]: 0.27

C[C@H]1Oc2cc(cnc2N)-c2c(nn(C)c2C#N)CN(C)C(=O)c2ccc(F)cc21 [Lorlatinib]
Cholesterol-free [1, 15]: 1.143
Complete ([1]; NCI-H292 cells, complete media): 0.8052
Difference ([1]; complete vs cholesterol-free media, greater than 0 enhanced anti-cancer activity, about 0 neutral, below 0 antagonists): −0.34
Cholesterol-free media + simvastatin (0.04 μM) [2, 12]: 0.9476
Difference [2, 19]: 0.20

COC(=O)C[C@](O)(CCCC(C)(C)O)C(=O)O[C@@H]1C(OC)=C[C@]23CCCN2CCc2cc4c(cc2[C@H]13)OCO4 [Homoharringtonine]
Difference [1, 9]: −0.02
Cholesterol-free [1, 10]: −0.02013
Complete [1, 11]: −0.04264
Cholesterol-free media + simvastatin (0.04 μM) [2, 6]: 0.0331
Complete Media [2, 7]: 0.0063
Difference [2, 17]: −0.03

NCc1ccc(C(=O)O)cc1 [4-(Aminomethyl)benzoic acid]
Difference [1, 26]: −0.68
Cholesterol-free [1, 24]: 1.961
Complete [1, 25]: 1.286
Cholesterol-free media + simvastatin (0.04 μM) [2, 6]: 1.68
Complete Media [2, 7]: 1.637
Difference [2, 17]: −0.04

Cc1c(C)c2c(c(C)c1O)CCC(C)(CCCC(C)CCCC(C)CCCC(C)C)O2 (racemic) [DL-alpha-Tocopherol]
Cholesterol-free [1, 10]: 0.7949
Complete [1, 11]: 1.459
Difference [1, 20]: 0.66
Cholesterol-free media + simvastatin (0.04 μM) [2, 12]: 1.155
Complete Media [2, 13]: 1.072
Difference [2, 14]: −0.08

Flupirtine (Maleate)
Difference [1, 26]: −0.56
Cholesterol-free [1, 24]: 1.589
Cholesterol-free media + simvastatin (0.04 μM) ([2]; cholesterol-free media with simvastatin 0.04 μM, cell growth value in FDA drug screen): 0.9024
Complete Media ([2]; complete media, cell growth value in FDA drug screen): 0.9412
Difference [2, 19]: 0.04

Nc1ccc(S(=O)(=O)Nc2ccc(Cl)nn2)cc1 [Sulfachloropyridazine]
Difference [1, 18]: −0.17
Cholesterol-free [1, 4]: 1.057
Complete [1, 5]: 0.8847
Cholesterol-free media + simvastatin (0.04 μM) [2, 6]: 0.9751
Complete Media [2, 7]: 0.932
Difference [2, 17]: −0.04

CCCCc1nc(Cl)c(CO)n1Cc1ccc(-c2ccccc2-c2nn[nH]n2)cc1 [Losartan (potassium)]
Difference [1, 9]: −0.24
Cholesterol-free [1, 15]: 1.05
Complete ([1]; NCI-H292 cells, complete media): 0.8102
Cholesterol-free media + simvastatin (0.04 μM) [2, 21]: 1.17
Complete Media ([2]; drug in complete media): 0.9634
Difference [2, 14]: −0.21

CCN(CC)CCOc1ccc2c(c1)C(=O)c1cc(OCCN(CC)CC)ccc1-2 [Tilorone (dihydrochloride)]
Difference [1, 9]: −0.30
Cholesterol-free [1, 15]: 1.404
Complete ([1]; NCI-H292 cells, complete media): 1.104
Cholesterol-free media + simvastatin (0.04 μM) [2, 21]: 1.099
Complete Media ([2]; drug in complete media): 0.8748
Difference [2, 14]: −0.22

Cc1cc(C(C)(C)C)cc(C)c1CC1=NCCN1 [Xylometazoline (hydrochloride)]
Difference [1, 3]: −0.59
Cholesterol-free [1, 24]: 1.406
Complete [1, 25]: 0.8153
Cholesterol-free media + simvastatin (0.04 μM) [2, 22]: 1.159
Complete Media [2, 23]: 0.7803
Difference ([2]; complete media vs cholesterol-free media + simvastatin (0.04 μM), […]): −0.38

Reference: patent publication US20250144067A1, “PERSONALIZED STARVATION THERAPY FOR CANCER” (Faeth Therapeutics, Inc., priority 2021, published 2025)
